From ChEMBL document CHEMBL3351629, “Modulators of the nuclear receptor retinoic acid receptor-related orphan receptor-γ (RORγ or RORc)” (J Med Chem, 2014)
pIC50: −log10 of the molar value.

Assays:
Mus musculus [1] = assay: Decrease in serum IL-17a level in mouse at 30 mg/kg in presence of anti-CD3 antibody; assay type: functional
[2] = target: T1, Nuclear receptor ROR-gamma (Mus musculus) (UniProt P51450); assay: Activity at RoRc in mouse CD4+ T cells assessed as inhibition of IL-17 production at 10 uM; assay type: cell-based; conditions: T-cell
T1 sequence (whole entry): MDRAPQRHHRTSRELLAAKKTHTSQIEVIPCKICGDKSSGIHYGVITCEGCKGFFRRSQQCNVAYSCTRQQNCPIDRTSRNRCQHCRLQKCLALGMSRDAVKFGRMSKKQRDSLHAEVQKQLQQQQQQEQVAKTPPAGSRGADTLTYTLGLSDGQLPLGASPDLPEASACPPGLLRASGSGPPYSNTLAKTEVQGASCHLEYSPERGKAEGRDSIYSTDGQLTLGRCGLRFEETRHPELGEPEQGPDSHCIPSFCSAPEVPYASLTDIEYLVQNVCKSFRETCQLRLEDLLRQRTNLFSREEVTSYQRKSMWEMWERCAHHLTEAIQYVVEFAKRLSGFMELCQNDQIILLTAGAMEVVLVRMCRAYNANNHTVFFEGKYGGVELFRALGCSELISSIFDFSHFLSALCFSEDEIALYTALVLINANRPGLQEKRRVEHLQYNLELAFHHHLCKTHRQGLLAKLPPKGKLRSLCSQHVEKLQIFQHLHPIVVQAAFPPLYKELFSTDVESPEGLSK

Mus musculus [3] = assay: Decrease in serum IL-17a level in mouse at 100 mg/kg in presence of anti-CD3 antibody; assay type: functional
Mus musculus [4] = assay: Decrease in serum IL-17a level in mouse at 300 mg/kg in presence of anti-CD3 antibody; assay type: functional
[5] = target: T2, Nuclear receptor ROR-gamma (Homo sapiens, UniProt P51449); assay: Binding affinity to RORgamma (unknown origin)
T2 sequence (P51449 whole entry): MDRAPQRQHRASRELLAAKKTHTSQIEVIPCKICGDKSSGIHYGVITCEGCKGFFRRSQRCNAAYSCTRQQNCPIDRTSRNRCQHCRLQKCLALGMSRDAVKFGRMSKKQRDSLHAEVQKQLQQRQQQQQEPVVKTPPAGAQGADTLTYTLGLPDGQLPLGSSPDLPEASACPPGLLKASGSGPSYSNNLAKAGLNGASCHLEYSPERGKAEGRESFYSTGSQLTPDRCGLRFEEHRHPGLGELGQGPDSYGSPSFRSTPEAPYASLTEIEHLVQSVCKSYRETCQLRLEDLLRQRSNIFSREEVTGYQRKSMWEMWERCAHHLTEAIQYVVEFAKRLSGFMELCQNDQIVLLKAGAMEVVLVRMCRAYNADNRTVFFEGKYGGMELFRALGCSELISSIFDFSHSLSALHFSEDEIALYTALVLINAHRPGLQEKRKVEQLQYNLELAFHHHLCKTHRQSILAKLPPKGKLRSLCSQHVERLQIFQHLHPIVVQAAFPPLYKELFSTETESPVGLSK

Compound | inhibition in vivo at 30 mg/kg (Mus musculus [1]) [%] | inhibition [2] [%] | inhibition in vivo at 100 mg/kg (Mus musculus [3]) [%] | inhibition in vivo at 300 mg/kg (Mus musculus [4]) [%] | pIC50 [5]
CCn1c2ccccc2c2cc(NC(=O)CC(C)CC(=O)Nc3ccc(C#N)c(Cl)c3)ccc21 (stereo not given) | 10 | 96 | 25 | 53 | –
C[C@H]1O[C@@H](O[C@H]2[C@@H](O)C[C@H](O[C@H]3[C@@H](O)C[C@H](O[C@H]4CC[C@@]5(C)[C@H](CC[C@@H]6[C@@H]5C[C@@H](O)[C@]5(C)[C@@H]([C@@H](CO)CCO)CC[C@]65O)C4)O[C@@H]3C)O[C@@H]2C)C[C@H](O)[C@@H]1O | – | – | – | – | 4.92
